In ChEMBL document CHEMBL1140236, “Aminoalkoxybenzyl pyrrolidines as novel human urotensin-II receptor antagonists” (Bioorg Med Chem Lett, 2005):

Assays:
[1] = target: T1, Urotensin-2 receptor (Homo sapiens, UniProt Q9UKP6); assay: Binding affinity using [125I]hU-II radioligand binding assay in HEK293 cell membranes expressing human Urotensin 2 receptor
T1 sequence (Q9UKP6 whole entry): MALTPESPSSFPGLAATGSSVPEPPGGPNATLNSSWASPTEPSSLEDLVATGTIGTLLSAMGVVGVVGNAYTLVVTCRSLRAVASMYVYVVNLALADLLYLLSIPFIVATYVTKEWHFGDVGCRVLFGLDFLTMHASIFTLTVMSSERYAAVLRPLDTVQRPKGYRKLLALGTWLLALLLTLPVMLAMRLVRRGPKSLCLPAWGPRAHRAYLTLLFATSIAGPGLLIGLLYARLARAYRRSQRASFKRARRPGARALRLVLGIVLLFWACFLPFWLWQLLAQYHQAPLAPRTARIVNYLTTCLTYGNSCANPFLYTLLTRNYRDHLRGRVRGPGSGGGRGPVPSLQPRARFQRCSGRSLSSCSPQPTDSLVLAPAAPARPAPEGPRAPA

[2] = target: T1, Urotensin-2 receptor; assay: (§1) Inhibition of hU-II-mediated [Ca2+]i mobilization in HEK293 cells expressing human recombinant Urotensin 2 receptor in FLIPR assay; assay type: cell-based
[3] = target: T2, Urotensin-2 receptor (Rattus norvegicus, UniProt P49684); assay: Binding affinity for rat urotensin-2 receptor
T2 sequence (P49684 whole entry): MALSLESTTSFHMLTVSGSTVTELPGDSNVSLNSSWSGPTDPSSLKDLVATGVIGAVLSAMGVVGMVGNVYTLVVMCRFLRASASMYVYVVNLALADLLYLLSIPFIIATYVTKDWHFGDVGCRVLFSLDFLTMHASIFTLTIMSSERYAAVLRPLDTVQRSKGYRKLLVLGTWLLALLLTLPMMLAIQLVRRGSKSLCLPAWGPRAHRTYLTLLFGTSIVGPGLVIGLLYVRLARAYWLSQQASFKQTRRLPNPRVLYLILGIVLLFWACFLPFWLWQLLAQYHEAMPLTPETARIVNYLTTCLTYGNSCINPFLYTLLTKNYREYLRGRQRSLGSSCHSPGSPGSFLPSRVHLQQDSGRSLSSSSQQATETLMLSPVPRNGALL

[4] = target: T3, Urotensin-2 receptor (Macaca mulatta, UniProt Q8HYC3); assay: Binding affinity for monkey urotensin-2 receptor
T3 sequence (Q8HYC3 whole entry): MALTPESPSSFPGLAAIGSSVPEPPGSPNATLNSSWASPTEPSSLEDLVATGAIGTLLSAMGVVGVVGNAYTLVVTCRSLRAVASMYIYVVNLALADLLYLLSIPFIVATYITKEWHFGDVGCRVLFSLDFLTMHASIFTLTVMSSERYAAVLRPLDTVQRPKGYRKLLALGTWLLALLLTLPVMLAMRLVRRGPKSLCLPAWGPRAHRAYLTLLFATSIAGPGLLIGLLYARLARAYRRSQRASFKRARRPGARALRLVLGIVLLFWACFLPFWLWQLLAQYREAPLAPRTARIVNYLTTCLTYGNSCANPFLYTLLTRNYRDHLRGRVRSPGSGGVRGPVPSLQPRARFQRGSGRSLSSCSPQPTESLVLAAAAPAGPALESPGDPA

[5] = target: T1, Urotensin-2 receptor; assay: as §1; assay type: functional, cell-based

Row | Compound | Ki [1] [nM] | also measured
1 | CN(C)CCCOc1ccc(CN2CC[C@H](NC(=O)c3ccc4c(c3)OCO4)C2)cc1 | 2510 | –
2 | CC(C)[C@H](NC(=O)c1ccc(Cl)c(Cl)c1)C(=O)N[C@H]1CCN(Cc2ccc(OCCCN(C)C)cc2)C1 | 794 | –
3 | CN(C)CCCOc1ccc(CN2CC[C@H](NC(=O)c3ccncc3)C2)cc1 | > 10000 | –
4 | CN(C)CCCOc1ccc(CN2CC[C@H](NC(=O)c3cc(Cl)cc(Cl)c3)C2)cc1 | 2000 | –
5 | CN(C)CCCOc1ccc(CN2CC[C@H](NC(=O)c3ccco3)C2)cc1 | > 10000 | –
6 | COc1ccc(C(=O)N[C@H]2CCN(Cc3ccc(OCCCN(C)C)cc3)C2)cc1OC | > 10000 | –
7 | CN(C)CCCOc1ccc(CN2CC[C@H](NC(=O)c3ccc(-c4ccccc4)cc3)C2)cc1 | > 10000 | –
8 | CC(C)C[C@H](NC(=O)Nc1ccccc1)C(=O)N[C@H]1CCN(Cc2ccc(OCCCN(C)C)cc2)C1 | 1000 | –
9 | CC(=O)N[C@H]1CCN(Cc2ccc(OCCCN(C)C)cc2)C1 | > 10000 | –
10 | CC(C)C[C@H](NC(=O)c1cc2ccccc2[nH]1)C(=O)N[C@H]1CCN(Cc2ccc(OCCCN(C)C)cc2)C1 | 501 | –
11 | CC(C)C[C@H](NC(=O)c1ccc(Br)cc1)C(=O)N[C@H]1CCN(Cc2ccc(OCCCN(C)C)cc2)C1 | 200 | –
12 | CN(C)CCCOc1ccc(CN2CC[C@H](NC(=O)CNC(=O)c3ccc(Cl)c(Cl)c3)C2)cc1 | > 10000 | –
13 | Cc1ccc(C(=O)N[C@H]2CCN(Cc3ccc(OCCCN(C)C)cc3)C2)cc1C | > 10000 | –
14 | CC(C)C[C@H](NC(=O)c1ccc(Cl)c(Cl)c1)C(=O)N[C@H]1CCN(Cc2ccc(OCCCN(C)C)cc2)C1 | 126 | –
15 | CC(C)C[C@H](NC(=O)c1ccc2c(c1)OCO2)C(=O)N[C@H]1CCN(Cc2ccc(OCCCN(C)C)cc2)C1 | 501 | –
16 | CN(C)CCCOc1ccc(CN2CC[C@H](NC(=O)c3cccs3)C2)cc1 | > 10000 | –
17 | CN(C)CCCOc1ccc(CN2CC[C@H](NC(=O)c3ccc(C(F)(F)F)cc3)C2)cc1 | > 10000 | –
18 | CN(C)CCCOc1ccc(CN2CC[C@H](NC(=O)c3ccc(C#N)cc3)C2)cc1 | > 10000 | –
19 | CC(C)C[C@H](NC(=O)c1ccc2ccccc2n1)C(=O)N[C@H]1CCN(Cc2ccc(OCCCN(C)C)cc2)C1 | 631 | –
20 | CC(C)C[C@H](NC(=O)Cc1ccc2c(c1)OCO2)C(=O)N[C@H]1CCN(Cc2ccc(OCCCN(C)C)cc2)C1 | 398 | –
21 | Cc1cc(C(=O)N[C@H]2CCN(Cc3ccc(OCCCN(C)C)cc3)C2)ccc1Cl | 631 | –

Row | Compound | Ki [1] [nM] | also measured
22 | CN(C)CCCOc1ccc(CN2CC[C@H](NC(=O)c3ccc4ccccc4c3)C2)cc1 | > 10000 | –
23 | CN(C)CCCOc1ccc(CN2CC[C@H](NC(=O)c3ccc(Br)cc3)C2)cc1 | 316 | –
24 | Cc1cc(C(=O)N[C@H]2CCN(Cc3ccc(OCCCN(C)C)cc3)C2)ccc1Br | 631 | –
25 | CC(C)C[C@H](NC(=O)c1ccccc1)C(=O)N[C@H]1CCN(Cc2ccc(OCCCN(C)C)cc2)C1 | 501 | –
26 | CC(C)C[C@H](NC(=O)c1cccs1)C(=O)N[C@H]1CCN(Cc2ccc(OCCCN(C)C)cc2)C1 | 398 | –
27 | CN(C)CCCOc1ccc(CN2CC[C@H](NC(=O)c3ccc(Cl)c(Cl)c3)C2)cc1 | 200 | IC50 [2]: 158 nM; Ki [3]: 3160 nM; Ki [4]: 251 nM
28 | CN(C)CCCOc1ccc(CN2CC[C@H](NC(=O)[C@H](CCC(=O)O)NC(=O)c3ccc(Cl)c(Cl)c3)C2)cc1 | > 10000 | –
29 | CN(C)CCCOc1ccc(CN2CC[C@H](NC(=O)[C@H](Cc3ccccc3)NC(=O)c3ccc(Cl)c(Cl)c3)C2)cc1 | 398 | –
30 | CN(C)CCCOc1ccc(CN2CC[C@H](NC(=O)[C@H](CCCCN)NC(=O)c3ccc(Cl)c(Cl)c3)C2)cc1 | > 10000 | –
31 | CC(C)C[C@H](NC(=O)Oc1ccccc1)C(=O)N[C@H]1CCN(Cc2ccc(OCCCN(C)C)cc2)C1 | 251 | –
32 | CC(C)C[C@H](NC(=O)c1ccco1)C(=O)N[C@H]1CCN(Cc2ccc(OCCCN(C)C)cc2)C1 | 631 | –
33 | CN(C)CCCOc1ccc(CN2CC[C@H](NC(=O)c3ccccc3)C2)cc1 | 2510 | –
34 | CC(=O)N[C@@H](CC(C)C)C(=O)N[C@H]1CCN(Cc2ccc(OCCCN(C)C)cc2)C1 | 2510 | –
35 | CN(C)CCCOc1ccc(CN2CC[C@H](NC(=O)c3cc4ccccc4o3)C2)cc1 | 2510 | –
36 | CC(C)C[C@H](NC(=O)c1ccncc1)C(=O)N[C@H]1CCN(Cc2ccc(OCCCN(C)C)cc2)C1 | 2000 | –
37 | CC(C)C[C@@H](NC(=O)c1cc2ccccc2o1)C(=O)NC1CCN(Cc2ccc(OCCCN(C)C)cc2)C1 (single isomer, unassigned) | 3160 | –
38 | CC(C)C[C@H](NC(=O)c1cc2ccccc2s1)C(=O)NC1CCN(Cc2ccc(OCCCN(C)C)cc2)C1 (single isomer, unassigned; 2a) | 126 | IC50 [5]: 631 nM
39 | CC(C)C[C@H](NC(=O)c1cc2ccccc2s1)C(=O)NC1CCN(Cc2ccc(OCCCN(C)C)cc2)C1 (single isomer, unassigned; 2b) | > 10000 | –
40 | CC(C)C[C@H](NC(=O)c1cc2ccccc2o1)C(=O)NC1CCN(Cc2ccc(OCCCN(C)C)cc2)C1 (single isomer, unassigned; 2c) | 158 | –
41 | CC(C)C[C@H](NC(=O)c1cc2ccccc2o1)C(=O)NC1CCN(Cc2ccc(OCCCN(C)C)cc2)C1 (single isomer, unassigned; 2d) | > 10000 | –
